This assay has as its system asymmetric di-methyl PABP1 in RKO cells. In words: RKO methylation assay, In Cell Western (ICW) for asymmetric di-methyl PABP1. The assay is classed as cell-based. The conditions noted are these: Homo sapiens, RKO, Cellular potencies, ICW PABP1me2a. The method, boiled down: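 RKO cells treated with compound for 48 h at 37 °C, then fixed, permeabilized and immunostained for asymmetric di-methyl PABP1, with DRAQ5 as DNA stain. Infrared 700/800 nm signal ratio normalized to DMSO and 20 μM reference-compound controls; IC50 from triplicate wells.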
On to `CNCC(O)COc1cc(NC)cc(-c2nc(NC3CCOCC3)c(C)c(-c3c(C)noc3C)n2)c1` (centres unmarked) [Example 136-1a], for which the IC50 was below 5 µM. The molecule `CNCC(O)COc1cc(OC)cc(-c2nc(NC3CCOCC3)c(C)c(-c3c(C)noc3C)n2)c1` (centres unmarked) [Example 75-1a] had a concentration for half-maximal inhibition (IC50) below 5 µM.

In turn, `CNCC(O)COc1cccc(-c2nc(-c3c(C)noc3C)cc(N3C[C@H]4C[C@@H]3CN4S(C)(=O)=O)n2)c1` (some centres unmarked) [Example 100-1a] yielded an IC50 of 5 to 10 µM. Then `CNC[C@@H](O)COc1ccc(F)c(-c2nc(-c3c(C)noc3C)c(C)c(N3Cc4cncnc4C3)n2)c1` [Example 260-3], with below 5 µM; and `CNC[C@H](O)COc1ccc(Cl)c(-c2nc(N[C@H]3CCN(C(=O)OC)C[C@H]3F)c(C)c(-c3c(C)noc3C)n2)c1` [Example 65-3], with below 5 µM. The result for `CNCC(O)COc1cccc(-c2nc(-c3c(C)noc3C)c(C)c(N3CCN(C(=O)C4CCOCC4)CC3)n2)c1` (centres unmarked) [Example 108-1a] reads below 5 µM; that for `CNC[C@@H](O)COc1ccc(Cl)c(-c2nc(-c3c(C)noc3C)c(C)c(N3CC4(CCC4)C3)n2)c1` [Example 246-3], below 5 µM; that for `CNCC(O)COc1ccc(Cl)c(-c2nc(NCC3COCCO3)c(C)c(-c3c(C)noc3C)n2)c1` (centres unmarked) [Example 41-3], below 5 µM. Take `CNCC(O)COc1cccc(-c2nc(N[C@@H]3CCOC3)c(C)c(N3CCS(=O)(=O)CC3)n2)c1` (some centres unmarked) [Example 425-1a]: the IC50 fell in the range of 10 to 20 µM. For the molecule `CNCC(O)COc1cccc(-c2nc(NCC3CCN(C4COC4)CC3)c(C)c(-c3c(C)noc3C)n2)c1` (centres unmarked) [Example 262-1a], the 50% inhibitory concentration (IC50) is below 5 µM. `CNC[C@@H](O)COc1ccc(Cl)c(-c2nc(-c3c(C)noc3C)c(C)c(N(C)C3CC(COC)C3)n2)c1` (some centres unmarked) [Example 220-3]: the IC50 is below 5 µM. Consider `CNCC(O)COc1cccc(-c2nc(-c3ccnc(C#N)c3)cc(N(C)C3CCOCC3)n2)c1` (centres unmarked) [Example 498-1a], for which the IC50 was below 5 µM. Then `CNCC(O)COc1cccc(-c2nc(N[C@@H]3CCOC3=O)c(C)c(-c3c(C)noc3C)n2)c1` (some centres unmarked) [Example 291-1a], with 10 to 20 µM; and `CNC[C@@H](O)COc1cccc(-c2nc(NC3CCOCC3)cc(-c3c(C)noc3C)n2)c1` [Example 18-1a], with below 5 µM; and `CNCC(O)COc1cccc(-c2nc(NC3CCOCC3)c(C)c(-c3c(C)noc3C)n2)c1` (centres unmarked) [Example 6-1a], with below 5 µM. For `CNCC(O)COc1cccc(-c2nc(NCC3CCN(C(=O)OC)CC3)c(C)c(-c3c(C)noc3C)n2)c1` (centres unmarked) [Example 184-1a], the IC50 is below 5 µM. On to `CNCC(O)COc1cccc(-c2nc(NC3CCOCC3)c(C)c(N3CCN(C(C)C)CC3)n2)c1` (centres unmarked) [Example 644-1a], for which the IC50 was at least 20 µM. The molecule `CNCC(O)COc1cccc(-c2nc(N(C)C3CCOCC3)cc(N3C[C@H]4C[C@@H]3CN4)n2)c1` (some centres unmarked) [Example 562-1a] yielded a 50% inhibitory concentration (IC50) of 10 to 20 µM.

As for `CNCC(O)COc1cc(Cl)cc(-c2nc(N[C@H]3CCOC3)cc(-c3c(C)noc3C)n2)c1` (some centres unmarked) [Example 12-1a], the half-inhibitory concentration (IC50) fell in the range of 10 to 20 µM. `CNCC(O)COc1cccc(-c2nc(N[C@@H]3CCOC3)c(C)c(N3CC[C@@H](N(C)C)C3)n2)c1` (some centres unmarked) [Example 392-1a] returned an IC50 of 5 to 10 µM.

The molecule `CNCC(O)COc1cccc(-c2nc(-c3csnc3C)cc(N(C)C3CCOCC3)n2)c1` (centres unmarked) [Example 493-1a] registered an IC50 below 5 µM. Take `CCC1(CNc2nc(-c3cccc(OCC(O)CNC)c3)nc(-c3c(C)noc3C)c2C)CCOCC1` (centres unmarked) [Example 141-1a]: the IC50 was below 5 µM.

Regarding `CNC[C@@H](O)COc1ccc(Cl)c(-c2nc(NC[C@H]3CCOC3)c(C)c(-c3c(C)noc3C)n2)c1` [Example 233-3], the IC50 is below 5 µM. `CNCC(O)COc1cccc(-c2nc(NCCCCl)c(C)c(N[C@@H]3CCOC3)n2)c1` (some centres unmarked) [Example 366-1a] returned an IC50 of 10 to 20 µM. Consider `CNCC(O)COc1cccc(-c2nc(-c3c(C)noc3C)cc(N3CCN(C)CC3)n2)c1` (centres unmarked) [Example 19-1a], for which the IC50 was in the range of 10 to 20 µM. In turn, `CNCC(O)COc1cc(OC)cc(-c2nc(-c3cnc4cnccn34)cc(N(C)C3CCOCC3)n2)c1` (centres unmarked) [Example 492-1a] had an IC50 below 5 µM. Take `CNCC(O)COc1ccc(Cl)c(-c2nc(NC3CC(O)(C(F)(F)F)C3)c(C)c(-c3c(C)noc3C)n2)c1` (centres unmarked) [Example 38-3]: the IC50 was below 5 µM. Then `C=C(C)c1cc(N(C)C2CCOCC2)nc(-c2cc(Cl)cc(OCC(O)CNC)c2)n1` (centres unmarked) [Example 619-1a], with 10 to 20 µM; and `CNCC(O)COc1cccc(-c2nc(N[C@@H]3CCOC3)c(C)c(N3Cc4nc(C)sc4C3)n2)c1` (some centres unmarked) [Example 465-1a], with below 5 µM; and `CNC[C@@H](O)COc1ccc(Cl)c(-c2nc(-c3c(C)noc3C)c(C)c(N3CCC4(CC3)CN(C(=O)OC)C4)n2)c1` [Example 115-3], with below 5 µM.

The molecule `CNCC(O)COc1cccc(-c2nc(-c3cc4ccccc4o3)cc(N(C)C3CCOCC3)n2)c1` (centres unmarked) [Example 570-1a] gave an IC50 of 10 to 20 µM. Regarding `CNCC(O)COc1cc(Cl)cc(-c2nc(-c3c(C)noc3C)cc(-c3c(C)noc3C)n2)c1` (centres unmarked) [Example 4-1a], the IC50 lay in the range of 10 to 20 µM.

The molecule `CCN1CCC[C@H]1CNc1nc(-c2cc(OC[C@@H](O)CNC)ccc2Cl)nc(-c2c(C)noc2C)c1C` [Example 48-3] showed an IC50 below 5 µM. Molecule `CNCC(O)COc1cccc(-c2nc(-c3c(C)noc3C)c(C)c(N3CCOC(C)(C)C3)n2)c1` (centres unmarked) [Example 200-1a] gave a half-maximal inhibitory concentration (IC50) below 5 µM. Then `CNC[C@@H](O)COc1ccc(Cl)c(-c2nc(N[C@@H]3CCO[C@H](C)C3)c(Cl)c(-c3c(C)noc3C)n2)c1` [Example 155-3], with below 5 µM; and `CNC[C@@H](O)COc1ccc(Cl)c(-c2nc(N[C@@H]3CCN(C4CC4)C[C@@H]3F)c(C)c(-c3c(C)noc3C)n2)c1` [Example 167-3], with below 5 µM; and `CNC[C@@H](O)COc1ccc(Cl)c(-c2nc(N[C@H]3CCN(C)C[C@H]3F)c(C)c(-c3c(C)noc3C)n2)c1` [Example 147-3], with below 5 µM. On to `CNCC(O)COc1cccc(-c2nc(-c3c(C)noc3C)c(C)c(N(C)C3CCOCC3)n2)c1` (centres unmarked) [Example 34-1a], for which the half-maximal inhibitory concentration (IC50) was below 5 µM.

Regarding `CNC[C@@H](O)COc1cccc(-c2nc(-c3c[nH]c4ncncc34)c(C)c(N(C)C3CCOCC3)n2)c1` [Example 526-1a], the half-inhibitory concentration (IC50) lay in the range of 5 to 10 µM.

In turn, `CCS(=O)(=O)N1CCC(Nc2nc(-c3cccc(OCC(O)CNC)c3)nc(-c3c(C)nsc3C)c2C)CC1` (centres unmarked) [Example 70-3] displayed an IC50 below 5 µM. For `CNCC(O)COc1cccc(-c2nc(-c3c(C)noc3C)c(C)c(N3CCO[C@H](CN(C)C)C3)n2)c1` (some centres unmarked) [Example 151-1a], the IC50 is below 5 µM. As for `CNCC(O)COc1cccc(-c2nc(NC3CCOCC3)c(F)c(-c3c(C)noc3C)n2)c1` (centres unmarked) [Example 96-1a], the IC50 was below 5 µM.

For `CNCC(O)COc1cccc(-c2nc(-c3cccc(C#N)c3)cc(N(C)C3CCOCC3)n2)c1` (centres unmarked) [Example 622-1a], the IC50 lay within 10 to 20 µM. Molecule `CCOC(=O)N1CC[C@H](Nc2nc(-c3cc(OC[C@H](O)CNC)ccc3Cl)nc(-c3c(C)noc3C)c2C)C1` [Example 150-3] returned a half-inhibitory concentration (IC50) below 5 µM. Regarding `CNCC(O)COc1cccc(-c2nc(-c3cnc4ncnn4c3)cc(N(C)C3CCOCC3)n2)c1` (centres unmarked) [Example 536-1a], the IC50 was 5 to 10 µM. The result for `CNC[C@H](O)COc1ccc(F)c(-c2nc(-c3c(C)noc3C)c(C)c(N3CCC4(CC3)CN(S(C)(=O)=O)C4)n2)c1` [Example 76-3] reads below 5 µM; that for `CNCC(O)COc1cccc(-c2nc(N[C@@H]3CCN(C(=O)OC)C[C@@H]3F)c(C)c(-c3c(C)noc3C)n2)c1` (some centres unmarked) [Example 225-1a], below 5 µM; that for `CNC[C@@H](O)COc1ccc(Cl)c(-c2nc(N[C@H]3CCN(C4CC4)C[C@H]3F)c(Cl)c(-c3c(C)noc3C)n2)c1` [Example 195-3], below 5 µM. Then `CNCC(O)COc1cccc(-c2nc(N[C@H]3C[C@H]4CC[C@@H](C3)N4C(=O)OC)c(C)c(-c3c(C)noc3C)n2)c1` (some centres unmarked) [Example 266-1a], with below 5 µM; and `CNC[C@H](O)COc1ccc(Cl)c(-c2nc(N[C@@H]3CCOC3)c(C)c(-c3c(C)noc3C)n2)c1` [Example 94-3], with below 5 µM; and `CNCC(O)COc1cc(Cl)cc(-c2nc(-c3ccncc3)c(C3CC3)c(N(C)C3CCOCC3)n2)c1` (centres unmarked) [Example 574-1a], with 10 to 20 µM.

In turn, `CNC[C@H](O)COc1ccc(Cl)c(-c2nc(-c3c(C)noc3C)c(C)c(N3Cc4cc(F)cnc4C3)n2)c1` [Example 86-3] returned an IC50 below 5 µM. The result for `CNCC(O)COc1cccc(-c2nc(N[C@@H]3CCOC3)c(C)c(-c3cncc(C#N)c3)n2)c1` (some centres unmarked) [Example 341-1a] reads 10 to 20 µM; that for `CNCC(O)COc1cccc(-c2nc(N(C)C3CCOCC3)c(C)c(N3CCNC[C@@H]3C)n2)c1` (some centres unmarked) [Example 567-1a], 10 to 20 µM; that for `CNC[C@H](O)COc1ccc(Cl)c(-c2nc(N[C@H]3CCN(C4CC4)C[C@H]3F)c(C)c(-c3c(C)noc3C)n2)c1` [Example 43-3], below 5 µM. The result for `CC[C@@H]1CN(c2nc(-c3cccc(OCC(O)CNC)c3)nc(-c3c(C)noc3C)c2C)CCN1S(=O)(=O)CC` (some centres unmarked) [Example 152-1a] reads below 5 µM; that for `CNC[C@@H](O)COc1ccc(Cl)c(-c2nc(-c3c(C)noc3C)c(C)c(N3Cc4cc(F)cnc4C3)n2)c1` [Example 157-3], below 5 µM. With `CNCC(O)COc1cccc(-c2nc(NCC3(N4CC(F)(F)C4)CCOCC3)c(C)c(-c3c(C)noc3C)n2)c1` (centres unmarked) [Example 302-1a], the IC50 was below 5 µM. `CNCC(O)COc1cccc(-c2nc(-c3c(C)noc3C)c(C)c(N3CCN(C(=O)OCCOC)CC3)n2)c1` (centres unmarked) [Example 134-1a] registered a half-maximal inhibitory concentration (IC50) below 5 µM. Then `CNC[C@@H](O)COc1cccc(-c2nc(-c3cn(S(C)(=O)=O)c4ncncc34)c(C)c(N(C)C3CCOCC3)n2)c1` [Example 488-1a], with below 5 µM; and `CNCC(O)COc1cccc(-c2nc(N[C@@H]3CC[C@H](O)C3)c(C)c(-c3c(C)noc3C)n2)c1` (some centres unmarked) [Example 163-1a], with below 5 µM; and `CNCC(O)COc1cc(Cl)cc(-c2nc(N(C)C3CCOCC3)c(C)c(-n3cccn3)n2)c1` (centres unmarked) [Example 618-1a], with 10 to 20 µM.

For orientation: IC50 means the concentration needed to halve the response being measured.

(Values after patent publication US10633389B2, “CARM1 inhibitors and uses thereof” (Epizyme, Inc., priority 2013, dated 2020).)
